According to ChEMBL document CHEMBL4020788, “Synthesis, SAR and molecular docking studies of benzo[d]thiazole-hydrazones as potential antibacterial and antifungal agents” (2017):
Calls of active or inactive are those of the source. No cut-off for these calls is given here.

Legend:
Type in all cases: functional
Staphylococcus aureus [1] = assay: Antibacterial activity against Staphylococcus aureus at 25 ug/ml after 24 hrs by agar well diffusion method
Staphylococcus aureus [2] = assay: Antibacterial activity against Staphylococcus aureus at 50 ug/ml after 24 hrs by agar well diffusion method
Staphylococcus aureus [3] = assay: Antibacterial activity against Staphylococcus aureus at 75 ug/ml after 24 hrs by agar well diffusion method
Staphylococcus aureus [4] = assay: Antibacterial activity against Staphylococcus aureus at 100 ug/ml after 24 hrs by agar well diffusion method
Bacillus subtilis [5] = assay: Antibacterial activity against Bacillus subtilis at 25 ug/ml after 24 hrs by agar well diffusion method
Bacillus subtilis [6] = assay: Antibacterial activity against Bacillus subtilis at 50 ug/ml after 24 hrs by agar well diffusion method
Bacillus subtilis [7] = assay: Antibacterial activity against Bacillus subtilis at 75 ug/ml after 24 hrs by agar well diffusion method
Bacillus subtilis [8] = assay: Antibacterial activity against Bacillus subtilis at 100 ug/ml after 24 hrs by agar well diffusion method
Escherichia coli [9] = assay: Antibacterial activity against Escherichia coli at 25 ug/ml after 24 hrs by agar well diffusion method
Escherichia coli [10] = assay: Antibacterial activity against Escherichia coli at 50 ug/ml after 24 hrs by agar well diffusion method
Escherichia coli [11] = assay: Antibacterial activity against Escherichia coli at 75 ug/ml after 24 hrs by agar well diffusion method
Escherichia coli [12] = assay: Antibacterial activity against Escherichia coli at 100 ug/ml after 24 hrs by agar well diffusion method
Klebsiella pneumoniae [13] = assay: Antibacterial activity against Klebsiella pneumoniae at 25 ug/ml after 24 hrs by agar well diffusion method
Klebsiella pneumoniae [14] = assay: Antibacterial activity against Klebsiella pneumoniae at 50 ug/ml after 24 hrs by agar well diffusion method
Klebsiella pneumoniae [15] = assay: Antibacterial activity against Klebsiella pneumoniae at 75 ug/ml after 24 hrs by agar well diffusion method
Klebsiella pneumoniae [16] = assay: Antibacterial activity against Klebsiella pneumoniae at 100 ug/ml after 24 hrs by agar well diffusion method
Staphylococcus aureus [17] = assay: Antibacterial activity against methicillin resistant Staphylococcus aureus MRSA090 at 25 ug/ml after 24 hrs by agar well diffusion method
Staphylococcus aureus [18] = assay: Antibacterial activity against methicillin resistant Staphylococcus aureus MRSA090 at 50 ug/ml after 24 hrs by agar well diffusion method
Staphylococcus aureus [19] = assay: Antibacterial activity against methicillin resistant Staphylococcus aureus MRSA090 at 75 ug/ml after 24 hrs by agar well diffusion method
Staphylococcus aureus [20] = assay: Antibacterial activity against methicillin resistant Staphylococcus aureus MRSA090 at 100 ug/ml after 24 hrs by agar well diffusion method
Aspergillus niger [21] = assay: Antifungal activity against Aspergillus niger at 25 ug/ml after 48 hrs by agar well diffusion method
Aspergillus niger [22] = assay: Antifungal activity against Aspergillus niger at 50 ug/ml after 48 hrs by agar well diffusion method
Aspergillus niger [23] = assay: Antifungal activity against Aspergillus niger at 75 ug/ml after 48 hrs by agar well diffusion method
Aspergillus niger [24] = assay: Antifungal activity against Aspergillus niger at 100 ug/ml after 48 hrs by agar well diffusion method
Fusarium verticillioides [25] = assay: Antifungal activity against Fusarium moniliforme at 25 ug/ml after 48 hrs by agar well diffusion method
Fusarium verticillioides [26] = assay: Antifungal activity against Fusarium moniliforme at 50 ug/ml after 48 hrs by agar well diffusion method
Fusarium verticillioides [27] = assay: Antifungal activity against Fusarium moniliforme at 75 ug/ml after 48 hrs by agar well diffusion method
Fusarium verticillioides [28] = assay: Antifungal activity against Fusarium moniliforme at 100 ug/ml after 48 hrs by agar well diffusion method
Fusarium oxysporum [29] = assay: Antifungal activity against Fusarium oxysporum at 25 ug/ml after 48 hrs by agar well diffusion method
Fusarium oxysporum [30] = assay: Antifungal activity against Fusarium oxysporum at 50 ug/ml after 48 hrs by agar well diffusion method
Fusarium oxysporum [31] = assay: Antifungal activity against Fusarium oxysporum at 75 ug/ml after 48 hrs by agar well diffusion method
Fusarium oxysporum [32] = assay: Antifungal activity against Fusarium oxysporum at 100 ug/ml after 48 hrs by agar well diffusion method

SMILES: Cc1cccc2nc(N/N=C/c3ccc[nH]3)sc12
- diameter of the inhibition zone (DIZ) (Staphylococcus aureus [1]): inactive
- diameter of the inhibition zone (DIZ) (Staphylococcus aureus [2]): inactive
- diameter of the inhibition zone (DIZ) (Staphylococcus aureus [3]): inactive
- diameter of the inhibition zone (DIZ) (Staphylococcus aureus [4]): inactive
- diameter of the inhibition zone (DIZ) (Bacillus subtilis [5]): inactive
- diameter of the inhibition zone (DIZ) (Bacillus subtilis [6]): inactive
- diameter of the inhibition zone (DIZ) (Bacillus subtilis [7]): inactive
- diameter of the inhibition zone (DIZ) (Bacillus subtilis [8]): inactive
- zone of inhibition at 25 µg/mL (Escherichia coli [9]; read-out: DIZ): 12 mm
- zone of inhibition at 50 µg/mL (Escherichia coli [10]; read-out: DIZ): 17 mm
- zone of inhibition at 75 µg/mL (Escherichia coli [11]; read-out: DIZ): 22 mm
- zone of inhibition at 100 µg/mL (Escherichia coli [12]; read-out: DIZ): 24 mm
- zone of inhibition at 25 µg/mL (Klebsiella pneumoniae [13]; read-out: DIZ): 10 mm
- zone of inhibition at 50 µg/mL (Klebsiella pneumoniae [14]; read-out: DIZ): 14 mm
- zone of inhibition at 75 µg/mL (Klebsiella pneumoniae [15]; read-out: DIZ): 19 mm
- zone of inhibition at 100 µg/mL (Klebsiella pneumoniae [16]; read-out: DIZ): 23 mm
- zone of inhibition at 25 µg/mL (Staphylococcus aureus [17]; MRSA090, 24 h, read-out: DIZ): 4 mm
- zone of inhibition at 50 µg/mL (Staphylococcus aureus [18]; MRSA090, 24 h, read-out: DIZ): 8 mm
- zone of inhibition at 75 µg/mL (Staphylococcus aureus [19]; MRSA090, 24 h, read-out: DIZ): 11 mm
- zone of inhibition at 100 µg/mL (Staphylococcus aureus [20]; MRSA090, 24 h, read-out: DIZ): 17 mm
- diameter of the inhibition zone (DIZ) (Aspergillus niger [21]): inactive
- diameter of the inhibition zone (DIZ) (Aspergillus niger [22]): inactive
- diameter of the inhibition zone (DIZ) (Aspergillus niger [23]): inactive
- diameter of the inhibition zone (DIZ) (Aspergillus niger [24]): inactive
- zone of inhibition at 25 µg/mL (Fusarium verticillioides [25]; read-out: DIZ): 4 mm
- zone of inhibition at 50 µg/mL (Fusarium verticillioides [26]; read-out: DIZ): 9 mm
- zone of inhibition at 75 µg/mL (Fusarium verticillioides [27]; read-out: DIZ): 14 mm
- zone of inhibition at 100 µg/mL (Fusarium verticillioides [28]; read-out: DIZ): 18 mm
- diameter of the inhibition zone (DIZ) (Fusarium oxysporum [29]): inactive
- diameter of the inhibition zone (DIZ) (Fusarium oxysporum [30]): inactive
- zone of inhibition at 75 µg/mL (Fusarium oxysporum [31]; read-out: DIZ): 10 mm
- zone of inhibition at 100 µg/mL (Fusarium oxysporum [32]; read-out: DIZ): 15 mm

SMILES: CC/C=N/Nc1nc2cccc(C)c2s1
- diameter of the inhibition zone (DIZ) (Staphylococcus aureus [1]): inactive
- diameter of the inhibition zone (DIZ) (Staphylococcus aureus [2]): inactive
- diameter of the inhibition zone (DIZ) (Staphylococcus aureus [3]): inactive
- diameter of the inhibition zone (DIZ) (Staphylococcus aureus [4]): inactive
- diameter of the inhibition zone (DIZ) (Bacillus subtilis [5]): inactive
- diameter of the inhibition zone (DIZ) (Bacillus subtilis [6]): inactive
- diameter of the inhibition zone (DIZ) (Bacillus subtilis [7]): inactive
- diameter of the inhibition zone (DIZ) (Bacillus subtilis [8]): inactive
- diameter of the inhibition zone (DIZ) (Escherichia coli [9]): inactive
- diameter of the inhibition zone (DIZ) (Escherichia coli [10]): inactive
- diameter of the inhibition zone (DIZ) (Escherichia coli [11]): inactive
- diameter of the inhibition zone (DIZ) (Escherichia coli [12]): inactive
- diameter of the inhibition zone (DIZ) (Klebsiella pneumoniae [13]): inactive
- diameter of the inhibition zone (DIZ) (Klebsiella pneumoniae [14]): inactive
- diameter of the inhibition zone (DIZ) (Klebsiella pneumoniae [15]): inactive
- diameter of the inhibition zone (DIZ) (Klebsiella pneumoniae [16]): inactive
- diameter of the inhibition zone (DIZ) (Staphylococcus aureus [17]): inactive
- diameter of the inhibition zone (DIZ) (Staphylococcus aureus [18]): inactive
- diameter of the inhibition zone (DIZ) (Staphylococcus aureus [19]): inactive
- diameter of the inhibition zone (DIZ) (Staphylococcus aureus [20]): inactive
- diameter of the inhibition zone (DIZ) (Aspergillus niger [21]): inactive
- diameter of the inhibition zone (DIZ) (Aspergillus niger [22]): inactive
- diameter of the inhibition zone (DIZ) (Aspergillus niger [23]): inactive
- diameter of the inhibition zone (DIZ) (Aspergillus niger [24]): inactive
- diameter of the inhibition zone (DIZ) (Fusarium verticillioides [25]): inactive
- diameter of the inhibition zone (DIZ) (Fusarium verticillioides [26]): inactive
- diameter of the inhibition zone (DIZ) (Fusarium verticillioides [27]): inactive
- diameter of the inhibition zone (DIZ) (Fusarium verticillioides [28]): inactive
- diameter of the inhibition zone (DIZ) (Fusarium oxysporum [29]): inactive
- diameter of the inhibition zone (DIZ) (Fusarium oxysporum [30]): inactive
- diameter of the inhibition zone (DIZ) (Fusarium oxysporum [31]): inactive
- diameter of the inhibition zone (DIZ) (Fusarium oxysporum [32]): inactive
